The test system of one test is control (Neo) cells. In words: Oxygen consumption rate (OCR) assay, control (Neo) HEK293 cells. Format: cell-based. The following applies: Homo sapiens; control (Neo) HEK293 cells; MitoXpress Xtra, 2 hours; read-out: Oxygen Consumption Rate (OCR) IC50, Neo. The source says: Diabetologia 2011, 54 (12): 3101-3110, each incorporated by reference with regard to such testing. The compounds of the present invention are similarly tested in an oxygen consumption rate (OCR) assay to evaluate the functional activity of test compounds in cells.
(§1) In brief, the assay uses HEK293 cells stably transfected with the human OCT1, OCT2, OCT3, PMAT, or MATE1 transporters to determine a compound's relative transporter selectivity and its effect on the rate of oxygen consumption relative to control (Neo) cells. The MitoXpress Xtra oxygen-sensitive fluorophore is used to monitor oxygen consumption rates in the presence and absence of compound treatments. The analogs were tested at eight (8) different concentrations in triplicate to determine a relative IC50 value.
(§2) A summary description of the protocol is as follows:
(§3) HEK293 cells transformed with human organic cation transporters were plated in collagen coated, 96-well black-walled microclear plates (Greiner-Bio 1, #655956) at 60,000 cells per well in growth medium (DMEM (LG), 10% FBS, 400 μg/ml G418). Cells were incubated overnight to allow attachment. The outer columns (1 and 12) are not seeded with cells, as controls. The next day, plating medium was removed and replaced with 150 μL of assay medium (DMEM/F12 (PRF), 5% FBS, antibiotics) containing compound dilutions. A 3-fold serial dilution was prepared in the assay medium and transferred to the empty wells. The outer columns and column 11 received 150 μL of assay medium only. 10 μL of MitoXpress Xtra reagent was added to each test well, and 100 μL of pre-warmed mineral oil was overlayed in each well to create a seal. Dual read time-resolved fluorescence (BMG FluoStar Galaxy reader) was measured over 2 hours with measurements taken every 2 minutes. Excitation is 340 nm, Emission is 650 nm. For lifetime analysis, two measurements per well were taken: 1) delay of 30 μs, with a window of 30 μs; and 2) delay of 70 μs with a window of 30 μs. Background TRF values from A1-D1 were subtracted from all readings. A ratiometric analysis was performed to determine changes in the Lifetime fluorescence signal:Lifetime (μs) [T]=(D2−D1)/ln(W1/W2), where D is delay; W is fluorescence window value at each time point. Lifetime slopes were calculated using each Lifetime measurement over time. IC50 values were determined by plotting lifetime slope values vs. compound concentration.

In the next test the target is T1, human MATE1 (Homo sapiens, UniProt Q96FL8).
T1 sequence (Q96FL8 1-570): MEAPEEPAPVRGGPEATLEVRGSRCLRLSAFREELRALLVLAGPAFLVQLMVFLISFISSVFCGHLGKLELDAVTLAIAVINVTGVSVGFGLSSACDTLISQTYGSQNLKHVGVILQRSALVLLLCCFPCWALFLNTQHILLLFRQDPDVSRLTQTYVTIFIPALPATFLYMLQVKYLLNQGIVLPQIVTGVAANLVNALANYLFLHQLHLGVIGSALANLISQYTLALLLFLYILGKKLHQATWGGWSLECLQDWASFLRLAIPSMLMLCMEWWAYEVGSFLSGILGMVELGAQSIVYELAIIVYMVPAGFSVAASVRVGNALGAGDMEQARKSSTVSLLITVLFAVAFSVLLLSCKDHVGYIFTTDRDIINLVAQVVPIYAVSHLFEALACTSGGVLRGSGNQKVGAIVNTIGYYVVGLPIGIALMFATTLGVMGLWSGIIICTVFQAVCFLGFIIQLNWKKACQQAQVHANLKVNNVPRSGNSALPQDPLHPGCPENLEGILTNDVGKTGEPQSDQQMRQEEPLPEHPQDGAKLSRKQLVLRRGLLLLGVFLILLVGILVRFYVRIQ
In words: Oxygen consumption rate (OCR) assay, HEK293 cells transfected with MATE1. The following applies: for inhibition at 1000 µM: HEK293, read-out: Oxygen Consumption Rate (OCR), MATE 1, % Inhibition at 1000 μM test concentration.
Source text: The compounds of the present invention are similarly tested in an oxygen consumption rate (OCR) assay to evaluate the functional activity of test compounds in cells.
as §1, §2
as §3, with “Cells” for “HEK293 cells transformed with human organic cation transporters were plated in collagen coated, 96-well black-walled microclear plates (Greiner-Bio 1, #655956) at 60,000 cells per well in growth medium (DMEM (LG), 10% FBS, 400 μg/ml G418). Cells”

Where a name gives a salt, the structure may show the parent alone. Bounds are passed on as bounds.

The term IC50 denotes the midpoint of a concentration-inhibition curve.

Consider `Cn1cc(CCNC(=N)NC(=N)N)c2ccc(F)cc21` [Ex 52, 1-[2-(6-fluoro-1-methyl-1H-indol-3-yl)ethyl]imidodicarbonimide diamide, trifluoroacetic acid salt], for which the figures for the IC50 in the test with control (Neo) cells and on human MATE1 were 388 µM and 32 µM, respectively.

In the case of `N=C(N)NC(=N)NCCc1c[nH]c2ccc(C(F)(F)F)cc12` [Ex 25, 1-[2-(5-trifluoromethyl-1H-indol-3-yl)ethyl]imidodicarbonimide diamide, trifluoroacetic acid salt], in the test on control (Neo) cells, the IC50 was 51 µM. Moreover, the inhibition at 1000 µM at human MATE1 is 44%.

`N=C(N)NC(=N)NCCc1c[nH]c2ccc(F)c(Cl)c12` [Ex 47, 1-[2-(4-chloro-5-fluoro-1H-indol-3-yl)ethyl]imidodicarbonimide diamide, trifluoroacetic acid salt]: the IC50 turned out to be 101 µM with control (Neo) cells and 22 µM against human MATE1.

In the case of `N=C(N)NC(=N)NCCc1c[nH]c2cc(F)c(F)cc12` [Ex 28, 1-[2-(5,6-difluoro-1H-indol-3-yl)ethyl]imidodicarbonimide diamide, trifluoroacetic acid salt], the half-maximal inhibitory concentration (IC50) in the test on control (Neo) cells worked out at 604 µM.

Regarding `COc1ccc2[nH]c(C)c(CCNC(=N)NC(=N)N)c2c1` [Ex 19, 1-[2-(5-methoxy-2-methyl-1H-indol-3-yl)ethyl]imidodicarbonimide diamide, trifluoroacetic acid salt], the IC50 with control (Neo) cells was > 3000 µM. In addition, the inhibition at 1000 µM at human MATE1 is 14%.

In the case of `N=C(N)NC(=N)NCCc1c[nH]c2ncc(Cl)cc12` [Ex 40, 1-(2-(5-chloro-1H-pyrrolo[2,3-b]pyridin-3-yl)ethyl)imidodicarbonimide diamide, trifluoroacetic acid salt], the values for the IC50 in the test on control (Neo) cells and against human MATE1 were > 1000 µM and 1470 µM, respectively.

As for `CN(C)C(=N)NC(=N)NCCc1c[nH]c2ccc(F)cc12` [Ex 24, 3-(2-(5-fluoro-1H-indol-3-yl)ethyl)-1,1-dimethyl imidodicarbonimide diamide hydrochloride], the IC50 was 1590 µM in the test on control (Neo) cells and > 10000 µM against human MATE1.

On to `N=C(N)NC(=N)NCCc1c[nH]c2ccc(Cl)c(F)c12` [Ex 49, 1-[2-(5-chloro-4-fluoro-1H-indol-3-yl)ethyl]imidodicarbonimide diamide, trifluoroacetic acid salt], for which the values for the IC50 in the test with control (Neo) cells and on human MATE1 were 155 µM and 64 µM, respectively.

Turning to `N=C(N)NC(=N)NCCc1c[nH]c2cc(F)c(Cl)cc12` [Ex 58, 1-[2-(5-chloro-6-fluoro-1H-indol-3-yl)ethyl]imidodicarbonimide diamide, trifluoroacetic acid salt], the IC50 in the test with control (Neo) cells came to 191 µM; against human MATE1 it was 35 µM.

For the molecule `N=C(N)NC(=N)NCCc1c[nH]c2ncccc12` [Ex 20, 1-(2-(1H-pyrrolo[2,3-b]pyridin-3-yl)ethyl)imidodicarbonimide diamide hydrochloride], in the test with control (Neo) cells, the IC50 was 605 µM.

In the case of `Cc1[nH]c2ccc(F)cc2c1CCNC(=N)NC(=N)N` [Ex 29, 1-[2-(5-fluoro-2-methyl-1H-indol-3-yl)ethyl]imidodicarbonimide diamide, trifluoroacetic acid salt], in the test with control (Neo) cells, the IC50 was > 100 µM.

For `CN(CCc1c[nH]c2cc(F)ccc12)C(=N)NC(=N)N` [Ex 65, 1-methyl-1-[2-(6-fluoro-1H-indol-3-yl)ethyl]imidodicarbonimide diamide, trifluoroacetic acid salt], the IC50 with control (Neo) cells was 8410 µM; at human MATE1, 354 µM.

With `N=C(N)NC(=N)NCCc1cn(CCO)c2ccccc12` [Ex 13, 1-[2-(1-(2-hydroxyethyl)-1H-indol-3-yl)ethyl]imidodicarbonimide diamide trifluoroacetic acid salt], the IC50 with control (Neo) cells turned out to be 2520 µM. On human MATE1, the inhibition at 1000 µM amounted to 22%.

Take `N=C(N)NC(=N)NCCc1c[nH]c2cc(F)c(F)c(F)c12` [Ex 50, 1-[2-(4,5,6-trifluoro-1H-indol-3-yl)ethyl]imidodicarbonimide diamide, trifluoroacetic acid salt]: the results for the IC50 with control (Neo) cells and against human MATE1 were 181 µM and 102 µM, respectively.

For `Cc1cc2c(CCNC(=N)NC(=N)N)c[nH]c2cc1F` [Ex 37, 1-[2-(6-fluoro-5-methyl-1H-indol-3-yl)ethyl]imidodicarbonimide diamide, trifluoroacetic acid salt], the values for the IC50 in the test on control (Neo) cells and on human MATE1 were 326 µM and 70 µM, respectively.

For `CCOc1ccc2[nH]cc(CCNC(=N)NC(=N)N)c2c1` [Ex 12, 1-[2-(5-ethoxy-1H-indol-3-yl)ethyl]imidodicarbonimide diamide trifluoroacetic acid salt], the IC50 in the test on control (Neo) cells stood at 1150 µM. Moreover, the inhibition at 1000 µM on human MATE1 is -8%.

With `N=C(N)NC(=N)NCCc1c[nH]c2cc(F)cc(F)c12` [Ex 61, 1-[2-(4,6-difluoro-1H-indol-3-yl)ethyl]imidodicarbonimide diamide, trifluoroacetic acid salt], the values for the 50% inhibitory concentration (IC50) in the test on control (Neo) cells and at human MATE1 were 333 µM and 62 µM, respectively.

As for `CN(C)C(=N)NC(=N)NCCc1c[nH]c2ccc(OC(F)(F)F)cc12` [Ex 33, 3-(2-(5-trifluoromethoxy-1H-indol-3-yl)ethyl)-1,1-dimethyl imidodicarbonimide diamide hydrochloride], the figures for the IC50 in the test on control (Neo) cells and on human MATE1 were 156 µM and 218 µM, respectively.

In the case of `CN(C)C(=N)NC(=N)NCCc1c[nH]c2ccc(Cl)cc12` [Ex 53, 3-(2-(5-chloro-1H-indol-3-yl)ethyl)-1,1-dimethyl imidodicarbonimide diamide trifluoroacetic acid salt], the IC50 was 422 µM with control (Neo) cells and 398 µM against human MATE1.

As to `N=C(N)NC(=N)NCCc1c[nH]c2c(F)cc(F)cc12` [Ex 27, 1-[2-(5,7-difluoro-1H-indol-3-yl)ethyl]imidodicarbonimide diamide, trifluoroacetic acid salt], the IC50 in the test on control (Neo) cells was 291 µM.

In the case of `Cn1cc(CCNC(=N)NC(=N)N)c2cccnc21` [Ex 39, 1-(2-(1-methyl-1H-pyrrolo[2,3-b]pyridin-3-yl)ethyl)imidodicarbonimide diamide, trifluoroacetic acid salt], the values for the IC50 with control (Neo) cells and on human MATE1 were 205 µM and 168 µM, respectively.

In the case of `Cc1cccc2[nH]cc(CCNC(=N)NC(=N)N)c12` [Ex 60, 1-[2-(4-methyl-1H-indol-3-yl)ethyl]imidodicarbonimide diamide, trifluoroacetic acid salt], the IC50 with control (Neo) cells was 1640 µM; on human MATE1, 636 µM.

`CN(C)C(=N)NC(=N)NCCc1c[nH]c2ncccc12` [Ex 30, 1-(2-(1H-pyrrolo[2,3-b]pyridin-3-yl)ethyl)-1,1-dimethyl imidodicarbonimide diamide trifluoroacetic acid salt]: in the test on control (Neo) cells, the IC50 was found to be 864 µM.

The values are drawn from patent US12371404B2, “Fused bicyclic alkylene linked imidodicarbonimidic diamides, methods for synthesis, and uses in therapy” (NovaTarg, Inc., priority 2016, dated 2025).
